Results as given in ChEMBL document CHEMBL1159296, “A Revised Structure for Rhinacanthone” (1995).

Tested on: Pyricularia oryzae
Test: Antifungal activity against Pyricularia oryzae assessed as inhibition of spore germination at 10 ppm
Assay type: functional

## CC1(C)COC2=C(C1)C(=O)C(=O)c1ccccc12 [RHINACANTHONE]
  inhibition at 10 ppm: 100%
